Here are results for two compounds from patent publication US20210227854A1, “USE OF D-RIBOSE TO ENHANCE ADAPTATION TO PHYSICAL STRESS” (Bioenergy Life Science, Inc., priority 2014, published 2021).

A short description of test [1]: Two-minute power test (time trial) on cycle ergometer after sixty-minute high-intensity exercise session, double-blind crossover study. As to conditions: for Absolute mean power output change / Relative mean power output change: Table 4, mean (±SD); for Mean Power (W/kg BW): difference between day 1 and day 3, 10 g/day, mean ± SD. The format is in vivo, human. The procedure: A high-intensity exercise protocol was designed as a double-blind, crossover study to assess the influence of D-Ribose adaptation to physical stress. Specifically, D-Ribose and a control (Dextrose) were administered on separate subjects at a dosage of ten grams per day (10 g/day). A variety of physiological parameters were measured in the subjects administered D-Ribose (DR) supplementation (i.e., the DR subjects) versus the subjects administered Dextrose (DEX) supplementation (i.e., the DEX subjects).
The subjects consisted of twenty-six (26) healthy individual (10 females, 16 males). Each subject was randomly categorized as a DR subject or a DEX subject for the administration of supplementation. Furthermore, each subject was required to maintain his or her normal diet during the study, as well as performing his or her normal daily activities without performing any additional separate exercise sessions not part of the study protocol.
To test D-ribose for adaptation, the twenty-six (26) adult subjects were further divided into two subgroups based on their fitness level (i.e., peak oxygen uptake (VO2 max) results. The first subgroup comprised subjects with higher VO2 max results (i.e., the “Fit Subgroup”) and the second subgroup comprised subjects with lower VO2 max results (i.e., the “Unfit Subgroup”). The Unfit Subgroup consisted of six (6) females and seven (7) males. The average age of the Unfit Subgroup was 27.7±3.4 years and the average peak VO2 of the Unfit Subgroup was 39.9±4.1 mL/kg/min. The Fit Subgroup consisted of four (4) females and nine (9) males. The average age of the Fit Subgroup was 27.6±3.5 year and the average peak VO2 of the Fit Subgroup was 52.2±4.3 mL/kg/min.
On the load days (i.e., the two (2) days prior to the exercise sessions), DR subjects consumed five grams (5 g) of DR mixed with either their food or in a self-selected beverage with lunch and an additional five grams (5 g) with dinner (i.e., between three to eight hours apart), while DEX subjects consumed five grams (5 g) of DEX mixed with either their food or in a self-selected beverage with lunch and an additional five grams (5 g) with dinner (i.e., between three to eight hours apart).
On the exercise session days (i.e., three (3) days following the load days), DR subjects ingested a standardized pre-exercise snack containing five grams (5 g) of DR at two (2) hours before the exercise session and five grams (5 g) of DR following the exercise session but before leaving the laboratory (i.e., within one hour following the exercise session), while DEX subjects ingested a standardized pre-exercise snack containing five grams (5 g) of DEX at two (2) hours before the exercise session and five grams (5 g) of DEX following the exercise session but before leaving the laboratory (i.e., within one hour following the exercise session). For both DR subjects and DEX subjects, the standardized snacks were self-selected but were based on the subjects' normal dietary habits. The snacks were consistent from day to day and consisted of one hundred seventy grams (170 g) of yogurt and two granola bars, along with the designated supplement. Subjects were asked to record their diets so that there would be consistency throughout the testing period. Following an exercise session, each subject ingested the final daily dose of five grams (5 g) before leaving the laboratory. Subjects also ingested two hundred milliliters (200 ml) of water at twenty (20) and forty (40) minutes of exercise to minimize the effects of dehydration, which can occur during periods of high-intensity exercise.
Each subject was randomly assigned to be a DR subject (for administration of DR supplementation) or a DEX subject (for administration of DEX supplementation). Apart from the supplementation provided to and consumed by the subject, the treatment protocols were identical. The specific treatment protocol (i.e., administration of supplementation and exercise sessions) is detailed in Table 1 below: […]

A short description of test [2]: Blood glucose levels during exercise. As to conditions: mean (SD). Type of test: in vivo, human. The procedure:
A high-intensity exercise protocol was designed as a double-blind, crossover study to assess the influence of D-Ribose adaptation to physical stress. Specifically, D-Ribose and a control (Dextrose) were administered on separate subjects at a dosage of ten grams per day (10 g/day). A variety of physiological parameters were measured in the subjects administered D-Ribose (DR) supplementation (i.e., the DR subjects) versus the subjects administered Dextrose (DEX) supplementation (i.e., the DEX subjects). To test D-ribose for adaptation, the twenty-six (26) adult subjects were further divided into two subgroups based on their fitness level (i.e., peak oxygen uptake (VO2 max) results. The first subgroup comprised subjects with higher VO2 max results (i.e., the “Fit Subgroup”) and the second subgroup comprised subjects with lower VO2 max results (i.e., the “Unfit Subgroup”). The Unfit Subgroup consisted of six (6) females and seven (7) males. The average age of the Unfit Subgroup was 27.7±3.4 years and the average peak VO2 of the Unfit Subgroup was 39.9±4.1 mL/kg/min. The Fit Subgroup consisted of four (4) females and nine (9) males. The average age of the Fit Subgroup was 27.6±3.5 year and the average peak VO2 of the Fit Subgroup was 52.2±4.3 mL/kg/min. Physiologic parameters were measured and hydration was provided to the subjects during the exercise session. The same protocol for testing and hydration protocol was followed for both DR subjects and DEX subjects. Blood samples were drawn from each subject via a venipuncture technique at the following time periods: • Ten (10) minutes before commencement of exercise; • Twenty (20) minutes after the commencement of and during exercise; • Forty (40) minutes after the commencement of and during exercise; • Sixty (60) minutes after the commencement of and during exercise; and • Twenty-four (24) hours after the conclusion of exercise (twenty-five (25) hours after the commencement of exercise). Blood glucose was measured at all of the above time points except at twenty-four (24) hours post-exercise. Creatine kinase and BUN levels were measured at the pre-exercise (−10 min.) point during the three (3) days of exercise and twenty-four (24) hours post-exercise following the third (last) exercise session. Heart rate was recorded using a Polar HR monitor. Blood glucose levels were measured using a Bayer glucose monitor. Blood lactate levels were measured by an AccuSport Lactate Analyzer. Creatine kinase and BUN were measured utilizing an Abaxis Piccolo analyzer. Power data from the time trial performance test was assessed with the Sports Medicine Industries (SMI) software package.

In the case of `O=C[C@H](O)[C@@H](O)[C@H](O)[C@H](O)CO` [DEX, Dextrose, reference compound], the “Average change in absolute peak power from Day 1 to Day 3” value in test [1] (Fit Subgroup) was 3.31±25.8 W; in test [1] (Unfit Subgroup), −10.8±33.0 W. Besides, the results for the “Average change in relative peak power from Day 1 to Day 3” value in test [1] (Fit Subgroup) and in test [1] (Unfit Subgroup) were −0.02+0.37 W/kg BW and −0.09+0.51 W/kg BW, respectively. Besides, the “Absolute mean power output change” value in test [1] (Fit Subgroup) was 8.2 (27.7) W; in test [1] (Unfit Subgroup), −8.9 (22.4) W. Further, the “Relative mean power output change” value in test [1] (Fit Subgroup) was 0.07 (0.33) W/kg BW; in test [1] (Unfit Subgroup), −0.09 (0.29) W/kg BW. In addition, the “Mean Power (W/kg BW)” value in test [1] (Fit Subgroup) is 0.07 ± 0.33 W/kg BW; in test [1] (Unfit Subgroup), −0.09 ± 0.31 W/kg BW. The “Blood glucose level during exercise” value is given as 4.0 (0.6) mM/L in test [2] (Fit Subgroup, 19.5); 4.1 (0.7) mM/L in test [2] (Fit Subgroup, 39.5); 4.0 (0.6) mM/L in test [2] (Fit Subgroup, 59.5); 4.0 (0.5) mM/L in test [2] (Unfit Subgroup, 19.5); 4.0 (0.5) mM/L in test [2] (Unfit Subgroup, 39.5); 3.9 (0.6) mM/L in test [2] (Unfit Subgroup, 59.5).
`O=C[C@H](O)[C@H](O)[C@H](O)CO` [DR, D-Ribose]: the “Average change in absolute peak power from Day 1 to Day 3” value came to 6.2±28.6 W in test [1] (Fit Subgroup) and 26.8±40.8 W in test [1] (Unfit Subgroup). Further, the “Average change in relative peak power from Day 1 to Day 3” value in test [1] (Fit Subgroup) is 0.15±0.41 W/kg BW; in test [1] (Unfit Subgroup), 0.33+0.52 W/kg BW. In addition, in test [1] (Fit Subgroup), the “Relative and absolute mean power outputs, DR versus DEX treatments” value is “not different”. The figures for the “Absolute mean power output change” value in test [1] (Fit Subgroup) and in test [1] (Unfit Subgroup) were 2.3 (17.1) W and 13.2 (24.2) W, respectively. Besides, the “Relative mean power output change” value in test [1] (Fit Subgroup) is reported as 0.08 (0.39) W/kg BW; in test [1] (Unfit Subgroup), 0.17 (0.32) W/kg BW. For the same compound, the entries for the “Mean Power (W/kg BW)” value in test [1] (Fit Subgroup) and in test [1] (Unfit Subgroup) were 0.08 ± 0.31 W/kg BW and 0.20 ± 0.32 W/kg BW, respectively. Further, the “Difference between DR and DEX in the change of absolute mean power” value in test [1] (Unfit Subgroup, p=0.01) worked out at 245%. Further, the “Improvement in relative mean power over DEX” value in test [1] (Unfit Subgroup, p=0.04) was 288%. Besides, the “Blood glucose level during exercise” value in test [2] (Fit Subgroup, 19.5) is on record as 3.8 (0.5) mM/L; in test [2] (Fit Subgroup, 39.5), 4.0 (0.5) mM/L; in test [2] (Fit Subgroup, 59.5) it was 3.9 (0.5) mM/L; in test [2] (Unfit Subgroup, 19.5), 4.0 (0.6) mM/L; in test [2] (Unfit Subgroup, 39.5), 4.0 (0.6) mM/L; in test [2] (Unfit Subgroup, 59.5), 4.1 (0.7) mM/L.
